# Molecular target: HPK1 (Homo sapiens (Human), UniProt Q92918)
# Experiment: HPK1 enzyme activity detection (1 mM ATP system), ADP-Glo with MBP substrate, Pharmacological Experiment 2
# Assay type: biochemical
# Experimental: (§1) Pharmacological Experiment 2: […] The test compound was serially diluted using DMSO to 200 times the detection concentration. […] Centrifuge at 1000×g for 30 seconds and incubate at 25° C. for 15 minutes. • (5) Adding ATP and substrate: Add 2 μL of 2×ATP-MBP solution to the 384-well plate and centrifuge at 1000×g for 30 seconds. Seal the plate with a sealing film and incubate at 25° C. for 60 minutes. • (6) Add ADP-Glo reagent: Add 4 μL ADP-Glo reagent (Promega, V9103) to the 384-well plate, centrifuge at 1000×g for 30 seconds, and incubate at 25° C. for 60 minutes. • (7) Detection of luminescent signal; Add 8 μL of luminescent detection reagent (Promega, V9103) to a 384-well plate, centrifuge at 1000×g for 30 seconds, and incubate at 25° C. for 60 minutes. The chemiluminescent signal was read using a BMG instrument. • (8) Calculation of percentage inhibition rate: […] See Table 2 for the enzymatic IC 50 data of the example compounds on HPK1.
# Sequence of HPK1 (Q92918 whole entry, species assumed): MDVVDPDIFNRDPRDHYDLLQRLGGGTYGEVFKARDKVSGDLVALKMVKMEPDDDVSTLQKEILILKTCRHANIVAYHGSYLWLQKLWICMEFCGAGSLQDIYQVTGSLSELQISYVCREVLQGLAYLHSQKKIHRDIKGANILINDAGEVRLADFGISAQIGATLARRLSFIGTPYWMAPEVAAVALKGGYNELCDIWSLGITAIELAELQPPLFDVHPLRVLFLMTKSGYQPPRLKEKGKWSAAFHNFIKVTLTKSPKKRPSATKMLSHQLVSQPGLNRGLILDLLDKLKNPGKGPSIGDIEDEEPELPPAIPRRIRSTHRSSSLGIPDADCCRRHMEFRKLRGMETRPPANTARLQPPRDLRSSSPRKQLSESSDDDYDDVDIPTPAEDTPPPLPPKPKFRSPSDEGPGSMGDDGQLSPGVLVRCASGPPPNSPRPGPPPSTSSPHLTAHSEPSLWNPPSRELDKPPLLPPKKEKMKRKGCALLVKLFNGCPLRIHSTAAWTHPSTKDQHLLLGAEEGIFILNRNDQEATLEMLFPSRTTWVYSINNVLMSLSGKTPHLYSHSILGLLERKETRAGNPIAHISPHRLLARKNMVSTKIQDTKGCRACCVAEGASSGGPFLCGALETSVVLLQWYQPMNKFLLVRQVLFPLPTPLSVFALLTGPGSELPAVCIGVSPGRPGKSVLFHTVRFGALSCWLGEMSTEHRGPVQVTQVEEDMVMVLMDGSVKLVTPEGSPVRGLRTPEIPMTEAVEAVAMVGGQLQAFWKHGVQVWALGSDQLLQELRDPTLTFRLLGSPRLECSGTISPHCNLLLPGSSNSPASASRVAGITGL
row,IC50 [nM],Compound
1,79.8,O=C1NCc2c(-c3cnc4cc(F)ccn34)ccc(Nc3ccc4c(n3)C(N3CC5CCC(C3)O5)CC43CCOCC3)c21 (centres unmarked) [Compound 116]
2,171,O=C1NCc2c(-c3cnc4cc(F)ccn34)ccc(Nc3ccc4c(n3)C(N3CCNCC3)CC43CCOCC3)c21 (centres unmarked) [Compound 99]
3,7.42,O=C1NCc2c(-c3cnc4cc(F)ccn34)ccc(Nc3ccc4c(n3)C(N3CCC(F)CC3)CC43CCOCC3)c21 (centres unmarked) [Compound 144]
4,5.41,CN(C)C1CC2(CCOCC2)c2ccc(Nc3ccc(-c4cnc5c(F)cccn45)c4c3C(=O)NC4)nc21 (centres unmarked) [Compound 159]
5,5.97,O=C1NCc2c(-c3cnc4cc(F)ccn34)ccc(Nc3ccc4c(n3)C(NC3CCCC3)CC43CCOCC3)c21 (centres unmarked) [Compound 109]
6,4.22,Cc1cc(Nc2cnc(-c3ccnc4c3ccn4C)c3c2C(=O)NC3)nc2c1C1(CCOCC1)CC2N(C)C (centres unmarked) [Compound 30]
7,38.1,CC(=O)N1Cc2nc(Nc3ccc(-c4cnc5cc(F)ccn45)c4c3C(=O)NC4)ccc2C2(CCCCC2)C1 [Compound 145]
8,9.27,COC1(C)CCN(C2CC3(CCOCC3)c3ccc(Nc4ccc(-c5cnc6cc(F)ccn56)c5c4C(=O)NC5)nc32)CC1 (centres unmarked) [Compound 94]
9,3.02,O=C1NCc2c(-c3cnc4cc(F)ccn34)ccc(Nc3ccc4c(n3)C(N3CC[C@H](F)C3)CC43CCOCC3)c21 (some centres unmarked) [Compound 74]
10,6.36,CC1(O)CCN(C2CC3(CCOCC3)c3ccc(Nc4ccc(-c5cnc6cc(F)ccn56)c5c4C(=O)NC5)nc32)CC1 (centres unmarked) [Compound 95]
11,7.5,C[C@H]1CN(C2CC3(CCOCC3)c3ccc(Nc4ccc(-c5cnc6cc(F)ccn56)c5c4C(=O)NC5)nc32)CCO1 (some centres unmarked) [Compound 97]
12,75.2,CC(=O)N1CCN(C2CC3(CCOCC3)c3ccc(Nc4ccc(-c5cnc6cc(F)ccn56)c5c4C(=O)NC5)nc32)CC1 (centres unmarked) [Compound 92]
13,6.88,COc1ccn2c(-c3ccc(Nc4ccc5c(n4)C(N(C)C)CC54CCOCC4)c4c3CNC4=O)cnc2c1 (centres unmarked) [Compound 170]
14,30.4,O=C1NCc2c(-c3cnc4cc(F)c(Cl)cn34)ccc(Nc3ccc4c(n3)CCCC43CCOCC3)c21 [Compound 150]
15,6.21,C[C@@H]1CN(C2CC3(CCOCC3)c3ccc(Nc4ccc(-c5cnc6cc(F)ccn56)c5c4C(=O)NC5)nc32)C[C@H](C)O1 (some centres unmarked) [Compound 113]
16,30.2,O=C1NCc2c(-c3cnc4cc(F)ccn34)ccc(Nc3ccc4c(n3)C(N3CCOC5(CC5)C3)CC43CCOCC3)c21 (centres unmarked) [Compound 111]
17,3.07,CC(C)CNC1CC2(CCOCC2)c2ccc(Nc3ccc(-c4cnc5cc(F)ccn45)c4c3C(=O)NC4)nc21 (centres unmarked) [Compound 141]
18,92.5,CN(CC(F)F)C1CC2(CCOCC2)c2ccc(Nc3ccc(-c4cnc5cc(F)ccn45)c4c3C(=O)NC4)nc21 (centres unmarked) [Compound 114]

row,IC50 [nM],Compound
1,1.27,"Cc1cc(Nc2ccc(-c3cnc4cc(F)ccn34)c3c2C(=O)NC3)nc2c1C1(CCOCC1)C[C@H]2N(C)C [Compound 28, (R)-7-((7-(DIMETHYLAMINO)-4-METHYL-2′,3′,5′,6,6′,7-HEXAHYDROSPIRO[B]PYRIDIN-5,4′-PYRAN]-2-YL)AMINO)-4-(7-FLUOROIMIDAZO[1,2-A]PYRIDIN-3-YL)ISOINDOLIN-1-ONE]"
2,4.53,CN(C)C1CCC2(CCOCC2)c2ccc(Nc3ccc(-c4cnc5cc(Cl)ccn45)c4c3C(=O)NC4)nc21 (centres unmarked) [Compound 31]
3,48.7,C[C@@H]1CN(C2CC3(CCOCC3)c3ccc(Nc4ccc(-c5cnc6cc(F)ccn56)c5c4C(=O)NC5)nc32)C[C@@H](C)O1 (some centres unmarked) [Compound 112]
4,71.1,O=C1NCc2c(-c3cnc4cc(F)ccn34)ccc(Nc3ccc4c(n3)C(NCC(F)(F)F)CC43CCOCC3)c21 (centres unmarked) [Compound 118]
5,102,"O=C1NCc2c(-c3cnc4cc(OC(F)F)ccn34)ccc(Nc3ccc4c(n3)C(N3CCOCC3)CC43CCOCC3)c21 (centres unmarked) [Compound 177, 4-(7-(DIFLUOROMETHOXY)IMIDAZO[1,2-A]PYRIDIN-3-YL)-7-((7-MORPHOLINE-2′,3′,5′,6,6′,7-HEXAHVDROSPIRO[B]PYRIDIN-54′-PYRAN]-2-YL)AMINO)ISOINDOL-1-ONE]"
6,3.08,CN(C)C1CCC2(CCOCC2)c2ccc(Nc3ccc(-c4cnn5cccnc45)c4c3C(=O)NC4)nc21 (centres unmarked) [Compound 45]
7,21.8,COc1ccn2c(-c3ccc(Nc4ccc5c(n4)CCCC54CCOCC4)c4c3CNC4=O)cnc2c1 [Compound 148]
8,12.1,O=C1NCc2c(-c3cnc4cc(OC(F)F)ccn34)ccc(Nc3ccc4c(n3)C(N3CCC(F)CC3)CC43CCOCC3)c21 (centres unmarked) [Compound 176]
9,16.8,CN(C)C1CC2(CCOCC2)c2ccc(Nc3ccc(-c4cnc5cc(OC(F)(F)F)ccn45)c4c3C(=O)NC4)nc21 (centres unmarked) [Compound 175]
10,4.52,CC(C)NC1CC2(CCOCC2)c2ccc(Nc3ccc(-c4cnc5cc(Cl)ccn45)c4c3C(=O)NC4)nc21 (centres unmarked) [Compound 142]
11,3.51,O=C1NCc2c(-c3cnc4cc(F)ccn34)ccc(Nc3ccc4c(n3)C(N3C[C@H]5C[C@@H]3CO5)CC43CCOCC3)c21 (some centres unmarked) [Compound 143]
12,38.7,C#CCN1Cc2nc(Nc3ccc(-c4cnc5cc(F)ccn45)c4c3C(=O)NC4)ccc2C2(CCOCC2)C1 [Compound 156]
13,35,CN(C)C1CC2(CCOCC2)c2ccc(Nc3ccc(-c4cnc5cc(O)ccn45)c4c3C(=O)NC4)nc21 (centres unmarked) [Compound 171]
14,18.6,CN(C)C1CC2(CCOCC2)c2ccc(Nc3ccc(-c4cnc5ccc(F)cn45)c4c3C(=O)NC4)nc21 (centres unmarked) [Compound 162]
15,243,C#CCN1Cc2nc(Nc3ccc(-c4cnc5cc(F)ccn45)c4c3C(=O)NC4)ccc2C2(CCOCC2)C1 [Compound 155]
16,72.5,CC1(C)CN(C2CC3(CCOCC3)c3ccc(Nc4ccc(-c5cnc6cc(F)ccn56)c5c4C(=O)NC5)nc32)CCO1 (centres unmarked) [Compound 96]
17,14.4,"O=C1N=Cc2c(-c3cnc4cc(Cl)ccn34)ccc(Nc3ccc4c(n3)CNCC43CC3)c21 [Compound 152, 4-(7-CHLOROIMIDAZO[1,2-A]PYRIDIN-3-YL)-7-((7′,8′-DIHYDRO-6′H-SPIRO[CYCLOPROPANE-1,5′-[1,7]NAPHTHYRIDINE]-2′-YL)AMINO)ISOINDOL-1-ONE]"

row,Compound,IC50 [nM]
1,"CC(C)c1ccn2c(-c3ccc(Nc4ccc5c(n4)C(N(C)C)CC54CCOCC4)c4c3CNC4=O)cnc2c1 (centres unmarked) [Compound 163, 7-((7-(DIMETHYLAMINO)-2′,3′,5′,6,6′,7-HEXAHYDROSPIRO[CYCLOPENTANE[B]PYRIDINE-5,4′-PYRAN]-2-YL)AMINO)-4-(7-ISOPROPYLIMIDAZO[1,2-A]PYRIDIN-3-YL)ISOINDOL-1-ONE]",25.3
2,"N#Cc1ccn2c(-c3ccc(Nc4ccc5c(n4)C(N4CCCC4)CC54CCOCC4)c4c3CNC4=O)cnc2c1 (centres unmarked) [Compound 168, 3-(1-OXO-7-((7-(PYRROLIDIN-1-YL)-2′,3′,5′,6,6′,7-HEXAHYDROSPIRO[CYCLOPENTA[B]PYRIDINE-5,4′-PYRAN]-2-YL)AMINO)ISOINDOL-4-YL)IMIDAZO[1,2-A]PYRIDINE-7-CARBONITRILE]",5.27
3,"CN1Cc2nc(Nc3ccc(-c4cnc5cc(F)ccn45)c4c3C(=O)NC4)ccc2C2(CCOCC2)C1 [Compound 100, 4-(7-FLUOROIMIDAZO[1,2-A]PYRIDIN-3-YL)-7-((7′-(METHYL-D3)-2,3,5,6,7′,8′-HEXAHYDRO-6′H-SPIRO[PYRAN-4,5′-[1,7]NAPHTHYRIDINE]-2′-YL)AMINO)ISOINDOL-1-ONE]",3.1
4,"4-(8-FLUORO-7-METHYLIMIDAZO[1,2-A]PYRIDIN-3-YL)-7-((2,3,5,6,7′,8′-HEXAHYDRO-6′H-SPIRO[PYRAN-4, 5′-[1,7]NAPHTHYRIDINE]-2′-YL)AMINO)ISOINDOL-1-ONE [Compound 149]",4.42
5,"O=C1NCc2c(-c3cnc4cc(F)ccn34)ccc(Nc3ccc4c(n3)C(N3CCC(F)(F)C3)CC43CCOCC3)c21 (centres unmarked) [Compound 72, 7-((7-(3,3-DIFLUOROPYRROLIDIN-1-YL)-2′,3′,5′6,6′,7-HEXAHYDROSPIRO[B]PYRIDINE-5,4′-PYRAN]-2-YL)AMINO)-4-(7-FLUOROIMIDAZOLE[1,2-A]PYRIDIN-3-YL)ISOINDOL-1-ONE]",143
6,"7-((2,3,5,6,7′,8′-HEXAHYDRO-6′-H-PYRANO[4,5′-[1,7]NAPHTHYRIDINE]-2′-YL)AMINO)-4-(7-(TRIFLUOROMETHYL)IMIDAZO[1,2-A]PYRIDIN-3-YL)ISOINDOL-1-ONE [Compound 147]",22
7,"CN(C)C1CC2(CCOCC2)c2ccc(Nc3ccc(-c4cnc5n4CCCC5)c4c3C(=O)NC4)nc21 (centres unmarked) [Compound 166, 7-((7-(DIMETHYLAMINO)-2′,3′,5′,6,6′,7-HEXAHYDROSPIRO[CYCLOPENTANE[B]PYRIDINE-5,4′-PYRAN]-2-YL)AMINO)-4-(5,6,7,8-TETRAHYDROIMIDAZO[1,2-A]PYRIDIN-3-YL)ISOINDOL-1-ONE]",25.7

# Molecular target: GLK (Homo sapiens (Human), UniProt Q8IVH8)
# Sequence (Q8IVH8 whole entry, species assumed): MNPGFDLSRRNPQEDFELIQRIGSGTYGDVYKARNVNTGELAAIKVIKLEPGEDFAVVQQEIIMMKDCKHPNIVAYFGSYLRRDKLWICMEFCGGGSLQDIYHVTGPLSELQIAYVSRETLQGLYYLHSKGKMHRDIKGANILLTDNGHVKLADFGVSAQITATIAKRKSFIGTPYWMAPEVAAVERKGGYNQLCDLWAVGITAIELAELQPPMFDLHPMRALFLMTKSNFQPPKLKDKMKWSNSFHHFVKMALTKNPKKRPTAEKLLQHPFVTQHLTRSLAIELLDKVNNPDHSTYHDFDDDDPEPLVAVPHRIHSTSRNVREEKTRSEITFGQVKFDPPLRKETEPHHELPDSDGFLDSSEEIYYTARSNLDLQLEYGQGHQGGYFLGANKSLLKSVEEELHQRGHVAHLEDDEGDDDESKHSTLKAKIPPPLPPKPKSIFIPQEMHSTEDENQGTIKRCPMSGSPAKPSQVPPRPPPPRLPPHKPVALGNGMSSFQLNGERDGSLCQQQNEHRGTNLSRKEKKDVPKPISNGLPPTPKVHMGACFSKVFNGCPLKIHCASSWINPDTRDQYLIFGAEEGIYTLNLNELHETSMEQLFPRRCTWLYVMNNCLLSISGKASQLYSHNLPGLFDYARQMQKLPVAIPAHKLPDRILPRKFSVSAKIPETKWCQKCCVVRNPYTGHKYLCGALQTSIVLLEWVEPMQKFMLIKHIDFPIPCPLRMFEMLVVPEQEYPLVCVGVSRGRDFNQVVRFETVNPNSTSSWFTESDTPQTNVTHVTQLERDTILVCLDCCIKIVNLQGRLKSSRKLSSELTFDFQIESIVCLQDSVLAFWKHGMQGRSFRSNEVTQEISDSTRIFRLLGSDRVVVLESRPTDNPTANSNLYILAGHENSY
# Experiment: GLK kinase assay (1 mM ATP system), ADP-Glo
# Assay type: biochemical
# Experimental: as §1, with “Solution” for “Pharmacological Experiment 2:”, “Add” for “Adding”, “signal:” for “signal;”, “microplate reader.” for “instrument.”, “GLK kinase IC50” for “enzymatic IC 50”
row,IC50 [nM],Compound
1,> 3000,O=C1NCc2c(-c3cnc4cc(F)ccn34)ccc(Nc3ccc4c(n3)C(N3CCC(F)CC3)CC43CCOCC3)c21 (centres unmarked) [Compound 144]
2,791,O=C1NCc2c(-c3cnc4cc(F)ccn34)ccc(Nc3ccc4c(n3)C(NC3CCCC3)CC43CCOCC3)c21 (centres unmarked) [Compound 109]
3,4530,COC1(C)CCN(C2CC3(CCOCC3)c3ccc(Nc4ccc(-c5cnc6cc(F)ccn56)c5c4C(=O)NC5)nc32)CC1 (centres unmarked) [Compound 94]
4,299,O=C1NCc2c(-c3cnc4cc(F)ccn34)ccc(Nc3ccc4c(n3)C(N3CC[C@H](F)C3)CC43CCOCC3)c21 (some centres unmarked) [Compound 74]

row,Compound,IC50 [nM]
1,"N#Cc1ccn2c(-c3ccc(Nc4ccc5c(n4)C(N4CCCC4)CC54CCOCC4)c4c3CNC4=O)cnc2c1 (centres unmarked) [Compound 168, 3-(1-OXO-7-((7-(PYRROLIDIN-1-YL)-2′,3′,5′,6,6′,7-HEXAHYDROSPIRO[CYCLOPENTA[B]PYRIDINE-5,4′-PYRAN]-2-YL)AMINO)ISOINDOL-4-YL)IMIDAZO[1,2-A]PYRIDINE-7-CARBONITRILE]",289
